Species: Rattus norvegicus
Experiment: Open TG-GATES - Regimen: Single
Format: toxicity, organism-based, Sprague-Dawley
Design: regimen Single, gender Male, age 6 weeks
Settings: in vivo, po, route gavage; for APTT / Bas / Eos / Fbg / Hb / Ht / Lym / MCH / MCHC / MCV / Mono / Neu / PT / Plat / RBC / Ret / WBC: tissue Blood; for KIDNEY_L / KIDNEY_R / KIDNEY_TOTAL: tissue Kidney; for LIVER: tissue Liver; for A/G / ALP / ALT / AST / BUN / CRE / Ca / Cl / DBIL / GLC / IP / K / LDH / Na / PL / RALB / TBIL / TC / TG / TP / gamma-GTP: tissue Plasma
[1] = 200 mg/kg, 3 h, dose level Middle
[2] = 200 mg/kg, 6 h, dose level Middle
[3] = 200 mg/kg, 9 h, dose level Middle
[4] = 200 mg/kg, 24 h, dose level Middle
[5] = 600 mg/kg, 3 h, dose level High
[6] = 600 mg/kg, 6 h, dose level High
[7] = 600 mg/kg, 9 h, dose level High
[8] = 600 mg/kg, 24 h, dose level High

C[C@](N)(Cc1ccc(O)c(O)c1)C(=O)O [METHYLDOPA]
TERMINAL_BW [1]: 187.9 g
APTT [1]: 15.7 s
Bas [1]: 0.2%
Eos [1]: 0.8%
Fbg [1]: 274 mg/dL
Hb [1]: 13.1 g/dL
Ht [1]: 39.2%
Lym [1]: 79%
MCH [1]: 21.5 pg
MCHC [1]: 33.4%
MCV [1]: 64.6 fL
Mono [1]: 3.4%
Neu [1]: 15.8%
PT [1]: 12.4 s
Plat [1]: 105.6 x10_4/uL
RBC [1]: 607 x10_4/ul
Ret [1]: 10.7%
WBC [1]: 91.2 x10_2/uL
KIDNEY_L [1]: 0.9 g
KIDNEY_R [1]: 0.8 g
KIDNEY_TOTAL [1]: 1.7 g
LIVER [1]: 7.8 g
A/G [1]: 0.9
ALP [1]: 1861.2 IU/L
ALT [1]: 55 IU/L
AST [1]: 80.2 IU/L
BUN [1]: 9 mg/dL
CRE [1]: 0.1 mg/dL
Ca [1]: 11.4 mg/dL
Cl [1]: 107.2 meq/L
DBIL [1]: 0.008 mg/dL
GLC [1]: 205.8 mg/dL
IP [1]: 9.8 mg/dL
K [1]: 4.6 meq/L
LDH [1]: 64.4 IU/L
Na [1]: 142.2 meq/L
PL [1]: 129.2 mg/dL
RALB [1]: 2.6 g/dL
TBIL [1]: 0.058 mg/dL
TC [1]: 78.6 mg/dL
TG [1]: 45 mg/dL
TP [1]: 5.4 g/dL
gamma-GTP [1]: 1.2 IU/L
TERMINAL_BW [2]: 189 g
APTT [2]: 16.4 s
Bas [2]: 0%
Eos [2]: 0.6%
Fbg [2]: 267.4 mg/dL
Hb [2]: 13.5 g/dL
Ht [2]: 41.1%
Lym [2]: 73.8%
MCH [2]: 21.1 pg
MCHC [2]: 32.8%
MCV [2]: 64.3 fL
Mono [2]: 3%
Neu [2]: 22.2%
PT [2]: 12.2 s
Plat [2]: 120.2 x10_4/uL
RBC [2]: 640.2 x10_4/ul
Ret [2]: 11.7%
WBC [2]: 56.8 x10_2/uL
KIDNEY_L [2]: 0.8 g
KIDNEY_R [2]: 0.8 g
KIDNEY_TOTAL [2]: 1.6 g
LIVER [2]: 7.9 g
A/G [2]: 0.9
ALP [2]: 1438.2 IU/L
ALT [2]: 48.2 IU/L
AST [2]: 71.6 IU/L
BUN [2]: 6.6 mg/dL
CRE [2]: 0.1 mg/dL
Ca [2]: 11.8 mg/dL
Cl [2]: 107 meq/L
DBIL [2]: 0.006 mg/dL
GLC [2]: 219.4 mg/dL
IP [2]: 13 mg/dL
K [2]: 5.3 meq/L
LDH [2]: 58.8 IU/L
Na [2]: 144.6 meq/L
PL [2]: 130.2 mg/dL
RALB [2]: 2.5 g/dL
TBIL [2]: 0.054 mg/dL
TC [2]: 85.8 mg/dL
TG [2]: 45.8 mg/dL
TP [2]: 5.3 g/dL
gamma-GTP [2]: 1 IU/L
TERMINAL_BW [3]: 186.6 g
APTT [3]: 16.1 s
Bas [3]: 0%
Eos [3]: 1.2%
Fbg [3]: 268.6 mg/dL
Hb [3]: 13.1 g/dL
Ht [3]: 38.8%
Lym [3]: 77.6%
MCH [3]: 22.3 pg
MCHC [3]: 33.8%
MCV [3]: 66 fL
Mono [3]: 2.8%
Neu [3]: 17.6%
PT [3]: 12.2 s
Plat [3]: 121.1 x10_4/uL
RBC [3]: 588.8 x10_4/ul
Ret [3]: 10.8%
WBC [3]: 53.5 x10_2/uL
KIDNEY_L [3]: 0.8 g
KIDNEY_R [3]: 0.8 g
KIDNEY_TOTAL [3]: 1.6 g
LIVER [3]: 7.2 g
A/G [3]: 0.9
ALP [3]: 1466.4 IU/L
ALT [3]: 43.4 IU/L
AST [3]: 71.8 IU/L
BUN [3]: 7 mg/dL
CRE [3]: 0.1 mg/dL
Ca [3]: 11 mg/dL
Cl [3]: 107 meq/L
DBIL [3]: 0.008 mg/dL
GLC [3]: 203.2 mg/dL
IP [3]: 11.2 mg/dL
K [3]: 4.9 meq/L
LDH [3]: 57.4 IU/L
Na [3]: 143.6 meq/L
PL [3]: 131.6 mg/dL
RALB [3]: 2.5 g/dL
TBIL [3]: 0.07 mg/dL
TC [3]: 83.6 mg/dL
TG [3]: 49.6 mg/dL
TP [3]: 5.3 g/dL
gamma-GTP [3]: 1 IU/L
TERMINAL_BW [4]: 192.7 g
APTT [4]: 16 s
Bas [4]: 0%
Eos [4]: 1%
Fbg [4]: 251.2 mg/dL
Hb [4]: 13.2 g/dL
Ht [4]: 39.1%
Lym [4]: 75.4%
MCH [4]: 22.1 pg
MCHC [4]: 33.9%
MCV [4]: 65.1 fL
Mono [4]: 2.8%
Neu [4]: 20.4%
PT [4]: 12.6 s
Plat [4]: 115.8 x10_4/uL
RBC [4]: 600.4 x10_4/ul
Ret [4]: 9.3%
WBC [4]: 76.2 x10_2/uL
KIDNEY_L [4]: 0.9 g
KIDNEY_R [4]: 0.8 g
KIDNEY_TOTAL [4]: 1.7 g
LIVER [4]: 8.9 g
A/G [4]: 0.9
ALP [4]: 1671.8 IU/L
ALT [4]: 58.2 IU/L
AST [4]: 80.8 IU/L
BUN [4]: 15.8 mg/dL
CRE [4]: 0.2 mg/dL
Ca [4]: 11.4 mg/dL
Cl [4]: 107.6 meq/L
DBIL [4]: 0.014 mg/dL
GLC [4]: 191 mg/dL
IP [4]: 8.6 mg/dL
K [4]: 4.6 meq/L
LDH [4]: 73.6 IU/L
Na [4]: 144.4 meq/L
PL [4]: 136.4 mg/dL
RALB [4]: 2.6 g/dL
TBIL [4]: 0.064 mg/dL
TC [4]: 80 mg/dL
TG [4]: 68.6 mg/dL
TP [4]: 5.5 g/dL
gamma-GTP [4]: 1 IU/L
TERMINAL_BW [5]: 186.5 g
APTT [5]: 15.6 s
Bas [5]: 0%
Eos [5]: 0.8%
Fbg [5]: 261.6 mg/dL
Hb [5]: 13.2 g/dL
Ht [5]: 39.8%
Lym [5]: 74.6%
MCH [5]: 22 pg
MCHC [5]: 33.1%
MCV [5]: 66.7 fL
Mono [5]: 3.4%
Neu [5]: 20.8%
PT [5]: 12.2 s
Plat [5]: 112.5 x10_4/uL
RBC [5]: 597.2 x10_4/ul
Ret [5]: 10.6%
WBC [5]: 68.3 x10_2/uL
KIDNEY_L [5]: 0.8 g
KIDNEY_R [5]: 0.8 g
KIDNEY_TOTAL [5]: 1.6 g
LIVER [5]: 7.8 g
A/G [5]: 0.9
ALP [5]: 1837.6 IU/L
ALT [5]: 55.2 IU/L
AST [5]: 84.4 IU/L
BUN [5]: 9.4 mg/dL
CRE [5]: 0.1 mg/dL
Ca [5]: 11.3 mg/dL
Cl [5]: 108.2 meq/L
DBIL [5]: 0.018 mg/dL
GLC [5]: 204.4 mg/dL
IP [5]: 9.8 mg/dL
K [5]: 4.6 meq/L
LDH [5]: 59.6 IU/L
Na [5]: 143.4 meq/L
PL [5]: 133.6 mg/dL
RALB [5]: 2.5 g/dL
TBIL [5]: 0.054 mg/dL
TC [5]: 76.6 mg/dL
TG [5]: 70.8 mg/dL
TP [5]: 5.4 g/dL
gamma-GTP [5]: 1 IU/L
TERMINAL_BW [6]: 187.6 g
APTT [6]: 17.1 s
Bas [6]: 0%
Eos [6]: 0.8%
Fbg [6]: 272.2 mg/dL
Hb [6]: 13.7 g/dL
Ht [6]: 41.1%
Lym [6]: 81%
MCH [6]: 21.7 pg
MCHC [6]: 33.3%
MCV [6]: 65.2 fL
Mono [6]: 2.4%
Neu [6]: 15.4%
PT [6]: 12.3 s
Plat [6]: 136.7 x10_4/uL
RBC [6]: 631 x10_4/ul
Ret [6]: 9.9%
WBC [6]: 49.9 x10_2/uL
KIDNEY_L [6]: 0.8 g
KIDNEY_R [6]: 0.8 g
KIDNEY_TOTAL [6]: 1.7 g
LIVER [6]: 7.7 g
A/G [6]: 0.9
ALP [6]: 1883.6 IU/L
ALT [6]: 52 IU/L
AST [6]: 81 IU/L
BUN [6]: 6 mg/dL
CRE [6]: 0.1 mg/dL
Ca [6]: 11.7 mg/dL
Cl [6]: 105.2 meq/L
DBIL [6]: 0.006 mg/dL
GLC [6]: 225.8 mg/dL
IP [6]: 13.1 mg/dL
K [6]: 5.4 meq/L
LDH [6]: 71.8 IU/L
Na [6]: 144.8 meq/L
PL [6]: 122 mg/dL
RALB [6]: 2.6 g/dL
TBIL [6]: 0.054 mg/dL
TC [6]: 76.6 mg/dL
TG [6]: 38 mg/dL
TP [6]: 5.6 g/dL
gamma-GTP [6]: 1 IU/L
TERMINAL_BW [7]: 188.2 g
APTT [7]: 17.2 s
Bas [7]: 0%
Eos [7]: 0.4%
Fbg [7]: 262.8 mg/dL
Hb [7]: 13.5 g/dL
Ht [7]: 40.3%
Lym [7]: 79%
MCH [7]: 22.1 pg
MCHC [7]: 33.6%
MCV [7]: 65.8 fL
Mono [7]: 2.6%
Neu [7]: 17.4%
PT [7]: 12.5 s
Plat [7]: 122.5 x10_4/uL
RBC [7]: 614.4 x10_4/ul
Ret [7]: 9.7%
WBC [7]: 52.4 x10_2/uL
KIDNEY_L [7]: 0.8 g
KIDNEY_R [7]: 0.8 g
KIDNEY_TOTAL [7]: 1.6 g
LIVER [7]: 7.3 g
A/G [7]: 0.9
ALP [7]: 1418.8 IU/L
ALT [7]: 46.2 IU/L
AST [7]: 67.8 IU/L
BUN [7]: 6.2 mg/dL
CRE [7]: 0.1 mg/dL
Ca [7]: 11.4 mg/dL
Cl [7]: 105.6 meq/L
DBIL [7]: 0.008 mg/dL
GLC [7]: 220 mg/dL
IP [7]: 11.8 mg/dL
K [7]: 4.9 meq/L
LDH [7]: 62 IU/L
Na [7]: 144.2 meq/L
PL [7]: 120 mg/dL
RALB [7]: 2.5 g/dL
TBIL [7]: 0.056 mg/dL
TC [7]: 75.4 mg/dL
TG [7]: 30.8 mg/dL
TP [7]: 5.3 g/dL
gamma-GTP [7]: 1 IU/L
TERMINAL_BW [8]: 180.6 g
APTT [8]: 16.9 s
Bas [8]: 0%
Eos [8]: 1%
Fbg [8]: 251.2 mg/dL
Hb [8]: 13.4 g/dL
Ht [8]: 39.6%
Lym [8]: 76%
MCH [8]: 21.9 pg
MCHC [8]: 33.9%
MCV [8]: 64.5 fL
Mono [8]: 3%
Neu [8]: 20%
PT [8]: 12.5 s
Plat [8]: 133.6 x10_4/uL
RBC [8]: 613.2 x10_4/ul
Ret [8]: 9.5%
WBC [8]: 49.4 x10_2/uL
KIDNEY_L [8]: 0.9 g
KIDNEY_R [8]: 0.9 g
KIDNEY_TOTAL [8]: 1.8 g
LIVER [8]: 7.5 g
A/G [8]: 0.9
ALP [8]: 1827.4 IU/L
ALT [8]: 50 IU/L
AST [8]: 73.4 IU/L
BUN [8]: 20 mg/dL
CRE [8]: 0.2 mg/dL
Ca [8]: 11.4 mg/dL
Cl [8]: 108.2 meq/L
DBIL [8]: 0.02 mg/dL
GLC [8]: 202.2 mg/dL
IP [8]: 8.8 mg/dL
K [8]: 4.8 meq/L
LDH [8]: 63.4 IU/L
Na [8]: 146.2 meq/L
PL [8]: 139.4 mg/dL
RALB [8]: 2.7 g/dL
TBIL [8]: 0.074 mg/dL
TC [8]: 84 mg/dL
TG [8]: 60.6 mg/dL
TP [8]: 5.7 g/dL
gamma-GTP [8]: 1 IU/L

— ChEMBL document CHEMBL3885861, “Open TG-GATES”
